Assay [1] has as its target Potassium voltage-gated channel subfamily KQT member 2 (Rattus norvegicus, UniProt O88943). As to the kind of experiment: KCNQ2 potassium channel inhibitors, dose response, cell-based, automated electrophysiology, set II, rat KCNQ2 (AID 588637). It counts as functional.
For assay [2], the target named is T1, Heat shock factor protein 1 (Mus musculus, UniProt P38532).
T1 sequence (P38532 whole entry): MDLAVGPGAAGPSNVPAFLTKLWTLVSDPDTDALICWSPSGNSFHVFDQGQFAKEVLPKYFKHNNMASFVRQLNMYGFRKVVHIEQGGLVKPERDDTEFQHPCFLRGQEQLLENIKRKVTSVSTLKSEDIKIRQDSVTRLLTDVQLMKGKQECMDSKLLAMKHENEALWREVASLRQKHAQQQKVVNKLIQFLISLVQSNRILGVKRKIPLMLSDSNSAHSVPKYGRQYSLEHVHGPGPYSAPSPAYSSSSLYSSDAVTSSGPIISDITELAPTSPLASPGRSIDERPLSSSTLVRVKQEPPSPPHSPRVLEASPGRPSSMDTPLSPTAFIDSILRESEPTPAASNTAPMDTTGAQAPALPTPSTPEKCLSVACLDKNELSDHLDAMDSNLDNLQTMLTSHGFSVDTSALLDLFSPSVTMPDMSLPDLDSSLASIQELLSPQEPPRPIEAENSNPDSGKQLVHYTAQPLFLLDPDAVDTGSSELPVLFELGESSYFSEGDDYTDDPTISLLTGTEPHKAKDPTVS
Kind of assay: inhibition of MG132-induced HSE-luciferase signal, confirmation, cell-based, NIH3T3, luminescence, dose retest (AID 2382).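 Further: NIH3T3 fibroblasts with HSF1-driven luciferase reporter stressed by proteasome inhibitor MG132; luminescence from HSF1-driven luciferase expression after 8 hours of MG132 stress.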 Format: functional.

For assay [3], the target named is T2, Microphthalmia-associated transcription factor (Homo sapiens, UniProt O75030).
T2 sequence (O75030 whole entry): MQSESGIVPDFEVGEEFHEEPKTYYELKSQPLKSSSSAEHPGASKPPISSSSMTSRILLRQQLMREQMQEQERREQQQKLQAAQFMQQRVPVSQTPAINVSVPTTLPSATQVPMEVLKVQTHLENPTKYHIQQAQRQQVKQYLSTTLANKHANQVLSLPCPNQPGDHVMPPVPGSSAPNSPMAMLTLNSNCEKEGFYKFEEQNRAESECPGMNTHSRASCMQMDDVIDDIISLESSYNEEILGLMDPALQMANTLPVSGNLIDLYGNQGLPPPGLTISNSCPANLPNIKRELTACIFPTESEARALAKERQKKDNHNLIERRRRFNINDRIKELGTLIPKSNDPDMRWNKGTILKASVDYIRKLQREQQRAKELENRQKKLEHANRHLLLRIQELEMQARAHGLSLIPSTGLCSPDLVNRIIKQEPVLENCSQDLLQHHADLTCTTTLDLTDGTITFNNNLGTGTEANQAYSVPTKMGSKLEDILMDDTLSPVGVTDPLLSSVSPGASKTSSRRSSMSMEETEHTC
Kind of assay: TRPM1 promoter luciferase signal decrease, dose response, MITF inhibitor project, cell-based, SK-MEL-5, cherry-picked, set 3 (AID 493073).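 Further: SK-MEL-5 melanoma cells with luciferase driven by the MITF target TRPM1 promoter.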 Format: functional.

The target of assay [4] is Palmitoyl-protein thioesterase ABHD10, mitochondrial (Mus musculus, UniProt Q6PE15). As to the kind of experiment: Late stage assay provider results from the probe development effort to identify inhibitors of PME-1: fluorescence-based dose response biochemical gel-based competitive Activity-Based Protein Profiling (ABPP) inhibition of ABHD10 Set 1. It counts as functional.

The target in assay [5] is Induced myeloid leukemia cell differentiation protein Mcl-1 (Homo sapiens, UniProt Q07820). Format: functional.
Sequence of Induced myeloid leukemia cell differentiation protein Mcl-1 (Q07820 whole entry): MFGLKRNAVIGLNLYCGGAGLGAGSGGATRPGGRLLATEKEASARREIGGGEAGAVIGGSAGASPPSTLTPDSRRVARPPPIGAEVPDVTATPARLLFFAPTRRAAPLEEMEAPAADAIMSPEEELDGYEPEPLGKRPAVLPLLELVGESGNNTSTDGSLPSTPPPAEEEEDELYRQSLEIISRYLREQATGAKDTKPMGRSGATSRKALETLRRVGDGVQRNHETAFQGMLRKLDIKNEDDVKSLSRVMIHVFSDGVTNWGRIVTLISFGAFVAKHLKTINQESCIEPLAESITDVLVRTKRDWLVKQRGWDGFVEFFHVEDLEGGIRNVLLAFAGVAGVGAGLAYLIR
Assay [6] addresses T3, Methionyl-tRNA synthetase, putative (Trypanosoma brucei brucei, UniProt Q38C91). It counts as functional, Trypanosoma brucei brucei strain 927/4 GUTat10.1.
A short description of assay [7]: Counterscreen for inhibitors of Trypanosoma brucei methionyl tRNA synthetase (MetRS): Luminescence-based cell-based high throughput dose response assay to identify compounds that are cytotoxic to Jurkat human T lymphocyte cells. Format: functional. For orientation: Counterscreens check selectivity or assay interference.
The target of assay [8] is T3, Methionyl-tRNA synthetase, putative. Format: functional, Trypanosoma brucei brucei strain 927/4 GUTat10.1. The source holds these as a separate data set.
For the next assay, the target named is Melanocortin receptor 4 (Homo sapiens, UniProt P32245). Kind of assay: MC4R antagonist potency on cAMP, dose response, cell-based, TR-FRET, biased antagonists (AID 602298).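 Further: antagonist potency against agonist-stimulated cAMP production.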 It counts as functional.
Sequence of Melanocortin receptor 4 (P32245 whole entry): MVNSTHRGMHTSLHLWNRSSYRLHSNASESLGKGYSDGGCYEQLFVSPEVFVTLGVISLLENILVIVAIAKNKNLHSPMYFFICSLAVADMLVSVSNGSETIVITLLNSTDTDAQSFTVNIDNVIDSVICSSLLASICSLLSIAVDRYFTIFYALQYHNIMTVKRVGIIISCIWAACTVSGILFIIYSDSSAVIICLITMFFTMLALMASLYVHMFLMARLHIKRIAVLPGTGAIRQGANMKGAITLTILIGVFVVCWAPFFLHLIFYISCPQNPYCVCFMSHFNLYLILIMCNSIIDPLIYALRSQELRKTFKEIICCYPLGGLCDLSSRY
Assay [9] is described as follows: nonselective inhibitors of cellular cAMP signaling, dose response, counter-screen for MC4R biased antagonist project, cell-based, TR-FRET cAMP detection (AID 602305).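 Further: U2OS cells stimulated with forskolin near its EC80 as the cAMP inducer; potency is for inhibition of forskolin-stimulated cAMP signaling.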 It counts as functional.
Assay [10] can be described thus: ARNT/TACC3 interaction disruptors, potency, confirmation, biochemical, AlphaScreen, cherry-picked samples (AID 651703).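 Further: His-tagged ARNT PAS-B domain paired with GST-TACC3 E629A dimer coactivator fragment; potency of inhibitors that break up the complex and lower AlphaScreen signal.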 It counts as functional, Homo sapiens.
A further assay has as its system Vero. As to the kind of experiment: Vero cell cytotoxicity, cytotoxicity control for flavivirus capping enzyme inhibitors (AID 588742). The note with it: Chlorocebus sabaeus. Format: functional.
Another assay concerns the target Genome polyprotein (dengue virus type 2, UniProt P29990). As to the kind of experiment: Dengue-2 NS5 methyltransferase inhibitors, primary screen, biochemical, confirmation dose response (AID 588689). It counts as functional.
Assay [11] concerns the target Ras and Rab interactor 1/Tyrosine-protein kinase ABL1 (Homo sapiens, UniProt P00519+Q13671). It counts as functional.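 Further: biochemical TR-FRET dose-response test measuring inhibition of binding between Rin1 and Abl proteins.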
Assay [12] has as its target T4, Corticotropin-releasing factor receptor 2/Corticotropin-releasing factor-binding protein (Homo sapiens, UniProt P24387+Q13324).
T4 sequence (Q13324 whole entry): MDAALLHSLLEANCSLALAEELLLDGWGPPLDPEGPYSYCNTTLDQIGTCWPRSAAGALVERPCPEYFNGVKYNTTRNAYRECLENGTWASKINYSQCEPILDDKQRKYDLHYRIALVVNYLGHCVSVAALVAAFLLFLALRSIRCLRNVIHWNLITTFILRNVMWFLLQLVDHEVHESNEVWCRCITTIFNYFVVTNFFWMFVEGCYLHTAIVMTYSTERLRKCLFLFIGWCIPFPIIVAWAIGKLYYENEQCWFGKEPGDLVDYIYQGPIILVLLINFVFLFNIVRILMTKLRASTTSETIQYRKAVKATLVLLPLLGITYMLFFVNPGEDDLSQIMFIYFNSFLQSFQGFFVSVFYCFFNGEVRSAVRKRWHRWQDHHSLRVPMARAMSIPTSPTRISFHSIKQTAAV
T4 sequence (P24387 whole entry): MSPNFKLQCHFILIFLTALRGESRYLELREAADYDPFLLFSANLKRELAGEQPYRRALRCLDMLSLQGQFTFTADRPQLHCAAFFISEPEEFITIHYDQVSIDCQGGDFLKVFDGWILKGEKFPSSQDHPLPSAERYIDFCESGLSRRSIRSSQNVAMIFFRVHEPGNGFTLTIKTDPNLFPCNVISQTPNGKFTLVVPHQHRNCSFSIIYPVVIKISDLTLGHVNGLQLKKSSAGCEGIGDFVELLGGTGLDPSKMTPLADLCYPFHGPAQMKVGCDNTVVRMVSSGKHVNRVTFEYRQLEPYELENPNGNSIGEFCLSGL
As to the kind of experiment: Dose Response confirmation of uHTS hits for small molecule antagonists of the CRF-binding protein and CRF-R2 receptor complex. It counts as functional. The conditions noted are these: read-out: IC50_Mean.

Assay [13] addresses T4, Corticotropin-releasing factor receptor 2/Corticotropin-releasing factor-binding protein. Kind of assay: activators of CRF receptor 2 with binding protein – uHTS hits, confirmation (AID 602473). It counts as functional. The note with it: read-out: EC50_Mean.
Assay [14] is described as follows: CRF-BP/CRF-R2 complex antagonists, dose response, cell-based, uHTS hits, 384-well (AID 651639). Format: functional, Homo sapiens. The conditions noted are these: read-out: IC50_Mean.
The target of assay [15] is T1, Heat shock factor protein 1. As to the kind of experiment: HSF1 potentiators in luciferase reporter cells, confirmation, cell-based, NIH3T3, luminescence, dose retest (AID 435004).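 Further: stress induced by proteasome inhibitor MG132 added 30 min after compound; luciferase reporter driven by HSF1 response element in NIH3T3 cells; actives raise luminescence as potentiators of the MG132 stress response.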 It counts as functional. (A reporter such as luciferase makes a cellular process visible.)
The next assay concerns INS1. Kind of assay: beta cell apoptosis inhibitors, cytokine rescue, dose response, luminescence, retest (AID 449756).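 Further: cell death triggered by IL-1 beta plus TNF-alpha plus IFN-gamma mixture; protective hits raise ATP signal compared with cytokine alone wells.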 Format: functional, cell-based. The note with it: Rattus norvegicus.
The target in assay [16] is Mitochondrial peptide methionine sulfoxide reductase (Bos taurus, UniProt P54149). Kind of assay: Absorbance-based biochemical high throughput dose response assay for activators of Methionine sulfoxide reductase A (MsrA). Format: functional.
Another assay deals with Protein Wnt-3a (Mus musculus, UniProt P27467). Kind of assay: Wnt3a-driven reporter signaling inhibition, dose response, selectivity assay for Gli-SUFU antagonist project, Wnt-LIGHT cells, luminescence (AID 651570).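 Further: Wnt-LIGHT reporter cells stimulated with conditioned medium from Wnt3a-producing cells.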 Format: functional. The note with it: read-out: IC50_Mean.
Sequence of Protein Wnt-3a (P27467 whole entry, the tested form may be a part): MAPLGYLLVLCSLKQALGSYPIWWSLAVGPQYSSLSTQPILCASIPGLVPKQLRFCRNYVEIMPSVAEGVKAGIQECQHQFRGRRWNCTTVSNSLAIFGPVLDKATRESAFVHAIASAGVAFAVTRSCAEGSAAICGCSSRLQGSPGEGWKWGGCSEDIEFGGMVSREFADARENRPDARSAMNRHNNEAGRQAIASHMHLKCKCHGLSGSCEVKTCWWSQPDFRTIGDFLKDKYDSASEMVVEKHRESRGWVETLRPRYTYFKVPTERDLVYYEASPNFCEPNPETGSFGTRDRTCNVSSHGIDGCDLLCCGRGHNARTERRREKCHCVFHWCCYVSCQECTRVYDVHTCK
Assay [17] concerns the target Hepatocyte nuclear factor 4-alpha (Homo sapiens, UniProt P41235). Format: functional, cell-based.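 Further: biochemical luminescence-based dose-response counterscreen measuring inhibition of HNF4 dimerization, run alongside a screen for blockers of ABHD5–perilipin-5 interaction; split luciferase complementation of HNF4 fusion proteins in cell lysate measuring dimerization.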
The target in assay [18] is T5, ATP-dependent translocase ABCB1 (Homo sapiens, UniProt P08183). Kind of assay: ABCG2 efflux pump inhibitor potency, dose response, Ig-MXP3 cells, JC-1, flow cytometry, set 2 (AID 504566).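 Further: flow cytometry median green fluorescence of retained JC-1 dye; potency of efflux pump inhibition measured as rising substrate retention.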 Format: functional. The conditions noted are these: read-out: EC50_MICROM_. In general terms: Flow cytometry measures light scatter and fluorescence of single cells or particles in a stream.
T5 sequence (P08183 whole entry): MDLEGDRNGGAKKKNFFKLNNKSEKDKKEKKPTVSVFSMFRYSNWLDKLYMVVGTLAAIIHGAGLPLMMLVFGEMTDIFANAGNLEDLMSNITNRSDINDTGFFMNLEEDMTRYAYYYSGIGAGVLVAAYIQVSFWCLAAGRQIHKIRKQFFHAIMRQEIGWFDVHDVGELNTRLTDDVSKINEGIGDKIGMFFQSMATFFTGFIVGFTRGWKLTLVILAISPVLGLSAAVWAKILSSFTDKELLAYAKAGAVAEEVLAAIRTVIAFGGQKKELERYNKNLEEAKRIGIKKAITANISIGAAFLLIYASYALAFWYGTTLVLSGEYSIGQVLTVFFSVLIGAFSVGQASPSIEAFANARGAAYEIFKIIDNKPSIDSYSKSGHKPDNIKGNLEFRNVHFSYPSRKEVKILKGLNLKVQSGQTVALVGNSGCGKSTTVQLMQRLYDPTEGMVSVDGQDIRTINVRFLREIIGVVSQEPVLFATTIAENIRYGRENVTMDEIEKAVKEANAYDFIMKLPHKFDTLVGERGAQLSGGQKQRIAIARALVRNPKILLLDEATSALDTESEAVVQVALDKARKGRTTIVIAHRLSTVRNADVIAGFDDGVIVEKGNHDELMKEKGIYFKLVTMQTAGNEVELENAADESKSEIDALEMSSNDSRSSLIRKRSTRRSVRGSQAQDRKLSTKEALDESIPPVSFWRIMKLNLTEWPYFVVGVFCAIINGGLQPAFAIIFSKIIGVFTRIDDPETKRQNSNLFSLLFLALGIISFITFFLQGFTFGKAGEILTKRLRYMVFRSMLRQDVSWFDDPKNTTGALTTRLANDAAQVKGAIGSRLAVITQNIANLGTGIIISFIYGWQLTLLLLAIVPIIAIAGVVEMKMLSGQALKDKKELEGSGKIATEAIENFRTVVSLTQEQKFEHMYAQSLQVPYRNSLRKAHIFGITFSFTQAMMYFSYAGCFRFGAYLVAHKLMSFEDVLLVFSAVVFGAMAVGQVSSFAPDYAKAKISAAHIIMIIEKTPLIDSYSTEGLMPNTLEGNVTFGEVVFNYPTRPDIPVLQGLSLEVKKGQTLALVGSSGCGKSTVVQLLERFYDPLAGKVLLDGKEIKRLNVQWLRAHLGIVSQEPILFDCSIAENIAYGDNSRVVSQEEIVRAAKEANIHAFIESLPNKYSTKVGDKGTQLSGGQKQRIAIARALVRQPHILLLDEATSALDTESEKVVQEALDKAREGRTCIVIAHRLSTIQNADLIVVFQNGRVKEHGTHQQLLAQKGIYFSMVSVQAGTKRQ

For assay [19], the target named is T5, ATP-dependent translocase ABCB1. Kind of assay: ABCB1 efflux inhibitor potency, dose response, Jurkat-DNR cells, JC-1, flow cytometry, set 2 (AID 504569).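 Further: potency of pump inhibitors that raise cellular JC-1 green fluorescence up to the nicardipine level.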 Format: functional. The conditions noted are these: read-out: EC50_MICROM_.

The results in this text go back to ChEMBL document CHEMBL1201862, “PubChem BioAssay data set” (2004).

Calls of active or inactive are those of the source.

T3 sequence (Q38C91 whole entry): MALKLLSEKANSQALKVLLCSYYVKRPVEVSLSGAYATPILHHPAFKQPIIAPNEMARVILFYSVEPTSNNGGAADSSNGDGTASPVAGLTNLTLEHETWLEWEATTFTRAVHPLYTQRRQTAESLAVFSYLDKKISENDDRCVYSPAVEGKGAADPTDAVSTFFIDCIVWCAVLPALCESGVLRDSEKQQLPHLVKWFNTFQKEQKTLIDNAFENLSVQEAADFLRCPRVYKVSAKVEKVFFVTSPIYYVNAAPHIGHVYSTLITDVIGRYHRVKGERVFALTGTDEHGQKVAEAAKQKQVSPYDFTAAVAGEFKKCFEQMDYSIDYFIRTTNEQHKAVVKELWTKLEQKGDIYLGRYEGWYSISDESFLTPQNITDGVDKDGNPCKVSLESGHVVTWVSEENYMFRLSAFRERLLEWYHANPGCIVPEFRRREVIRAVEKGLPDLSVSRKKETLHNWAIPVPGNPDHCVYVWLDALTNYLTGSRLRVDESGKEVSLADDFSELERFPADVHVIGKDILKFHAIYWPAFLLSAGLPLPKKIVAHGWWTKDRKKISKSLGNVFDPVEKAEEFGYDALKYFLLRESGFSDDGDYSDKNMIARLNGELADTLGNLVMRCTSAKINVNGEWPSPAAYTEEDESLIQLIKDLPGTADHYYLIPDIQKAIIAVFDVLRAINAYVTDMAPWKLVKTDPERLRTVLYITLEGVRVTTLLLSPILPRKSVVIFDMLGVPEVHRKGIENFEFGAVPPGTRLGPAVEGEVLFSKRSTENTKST
Sequence of Ras and Rab interactor 1/Tyrosine-protein kinase ABL1 (P00519 whole entry): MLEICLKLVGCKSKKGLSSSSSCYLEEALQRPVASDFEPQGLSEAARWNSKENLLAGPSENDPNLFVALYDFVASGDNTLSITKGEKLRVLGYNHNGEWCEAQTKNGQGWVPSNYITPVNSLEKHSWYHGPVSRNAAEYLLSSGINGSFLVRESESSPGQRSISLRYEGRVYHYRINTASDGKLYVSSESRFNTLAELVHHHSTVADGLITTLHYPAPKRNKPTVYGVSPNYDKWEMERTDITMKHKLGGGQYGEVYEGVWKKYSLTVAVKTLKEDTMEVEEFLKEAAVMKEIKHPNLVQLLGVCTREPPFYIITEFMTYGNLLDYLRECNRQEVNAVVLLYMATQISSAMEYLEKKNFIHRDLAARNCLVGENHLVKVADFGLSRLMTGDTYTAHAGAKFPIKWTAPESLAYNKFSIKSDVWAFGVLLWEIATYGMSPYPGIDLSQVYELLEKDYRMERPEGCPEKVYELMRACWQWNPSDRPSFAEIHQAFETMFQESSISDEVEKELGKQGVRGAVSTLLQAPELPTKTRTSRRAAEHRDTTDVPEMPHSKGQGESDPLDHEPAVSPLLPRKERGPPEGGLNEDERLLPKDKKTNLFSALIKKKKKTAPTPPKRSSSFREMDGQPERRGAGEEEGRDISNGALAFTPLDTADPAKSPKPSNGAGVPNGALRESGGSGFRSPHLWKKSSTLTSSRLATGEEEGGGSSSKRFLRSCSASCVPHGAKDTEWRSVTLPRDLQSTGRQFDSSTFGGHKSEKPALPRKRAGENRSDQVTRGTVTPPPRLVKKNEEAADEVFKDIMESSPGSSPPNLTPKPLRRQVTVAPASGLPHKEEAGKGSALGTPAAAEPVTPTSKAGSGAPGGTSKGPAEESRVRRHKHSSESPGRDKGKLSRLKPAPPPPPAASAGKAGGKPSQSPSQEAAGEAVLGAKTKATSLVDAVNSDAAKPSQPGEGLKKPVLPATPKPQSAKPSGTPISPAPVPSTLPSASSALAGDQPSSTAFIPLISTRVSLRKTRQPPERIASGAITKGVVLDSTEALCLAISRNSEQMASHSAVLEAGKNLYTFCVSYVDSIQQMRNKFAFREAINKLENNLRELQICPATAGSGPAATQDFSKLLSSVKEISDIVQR
Sequence of Ras and Rab interactor 1/Tyrosine-protein kinase ABL1 (Q13671 whole entry): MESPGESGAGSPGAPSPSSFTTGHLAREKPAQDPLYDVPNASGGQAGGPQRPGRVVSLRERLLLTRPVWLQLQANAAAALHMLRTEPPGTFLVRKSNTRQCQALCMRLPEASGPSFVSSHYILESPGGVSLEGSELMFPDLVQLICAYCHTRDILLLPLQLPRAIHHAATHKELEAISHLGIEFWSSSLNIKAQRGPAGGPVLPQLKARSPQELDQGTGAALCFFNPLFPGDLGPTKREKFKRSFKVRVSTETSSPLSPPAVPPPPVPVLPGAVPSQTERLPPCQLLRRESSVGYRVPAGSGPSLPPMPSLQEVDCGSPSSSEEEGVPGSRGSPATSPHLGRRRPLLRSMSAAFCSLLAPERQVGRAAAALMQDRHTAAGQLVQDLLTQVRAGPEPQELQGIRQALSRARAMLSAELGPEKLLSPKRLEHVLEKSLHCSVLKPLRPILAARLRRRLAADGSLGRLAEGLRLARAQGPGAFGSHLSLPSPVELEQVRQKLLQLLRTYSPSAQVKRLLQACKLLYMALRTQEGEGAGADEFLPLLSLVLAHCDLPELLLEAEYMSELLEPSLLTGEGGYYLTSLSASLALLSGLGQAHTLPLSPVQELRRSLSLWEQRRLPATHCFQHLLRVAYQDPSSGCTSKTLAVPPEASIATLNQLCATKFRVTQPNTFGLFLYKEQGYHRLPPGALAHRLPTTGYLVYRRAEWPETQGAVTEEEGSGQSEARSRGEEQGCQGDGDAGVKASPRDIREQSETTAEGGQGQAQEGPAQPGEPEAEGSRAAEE

In the case of `COc1cccc(-c2nc(CS(=O)(=O)CC(=O)NC3CCCc4ccccc43)c(C)o2)c1` (configuration not stated), the IC50 in assay [1] was 0.869 µM (active).

As for `CCOC(=O)N1C(=O)[C@@](CC)(c2ccccc2)N1C(=O)OCC`, in [2], the EC50 is listed as > 195 µM (not active). Also, the AC50 in assay [3] was 12.5 µM (active). For the same molecule, the IC50 in [4] is 0.173 µM (active).

In the case of `COc1ccc(N2CCC(CNC(=O)Nc3ccc(Cl)cc3)C2)cc1` (configuration not stated), the IC50 in [5] is > 54 µM (not active); in assay [6], 38.4 µM (inactive); in assay [7], 83.3 µM (inactive); in [8], 27.3 µM (inactive).

As to `Sc1nnc(-c2ccc3ccccc3n2)n1-c1cc(Cl)cc(Cl)c1`, the IC50 (at Melanocortin receptor 4; in [9]) was > 64.6 µM (inactive) throughout.

`COc1cccc(CNC(=O)COC(=O)c2ccc(C(=O)c3ccccc3)cc2)c1`: the AC50 in assay [10] is 79.3 µM (active).

`CCOc1c(Cl)cc(C(=O)Nc2ccccc2C(=O)O)cc1Cl`: the CC50 in the assay on Vero was > 40 µM (active). The IC50 at Genome polyprotein is 52 µM (active); in assay [11], 26.8 µM (inactive).

With `Cc1cc(C(=O)COc2cc(F)ccc2[N+](=O)[O-])c(C)n1CC1CCCO1` (configuration not stated), the IC50 (at Melanocortin receptor 4; in assay [9]) was > 64.6 µM (inactive) each time.

Turning to `CC1(C)C2CC=C(/C=N/NC(=O)c3ccccc3O)C1C2` (configuration not stated), the IC50 was 5.3 µM (active) in assay [12] and > 20 µM (inactive) in [14]. The EC50 in assay [13] is 31.1 µM (active).

On to `Nc1nc2ccccc2n1/N=C/c1ccc([N+](=O)[O-])s1`, for which the EC50 in assay [15] is 4.39 µM (active); in [16] it was > 104 µM (inactive). Also, the AC50 in [3] was 2.81 µM (active); in the assay on INS1 it was 4.11 µM (active). For the same molecule, on Protein Wnt-3a, the IC50 is 15.3 µM (active).

With `COC(=O)c1cc(=O)n(Cc2ccco2)/c(=N/c2ccc(F)cc2)s1`, the IC50 in [17] was 5.67 µM (active).

Turning to `Cc1cccc(-c2nc3nc(C)cc(N4CCN(C(=O)c5ccco5)CC4)n3n2)c1`, the EC50 is 6 µM (active) in assay [18] and 14.6 µM (active) in assay [19].

By AC50 is commonly meant the concentration at which the activity in the assay is half-maximal. Broadly, the CC50 is the concentration at which the toxic effect on the cells reaches its halfway point.
